Where two headings read alike, the source gives them in different places.
Legend:
[1] = tested on: primary human neutrophils; test: Generation of reactive oxygen species by fMLP-activated neutrophils (luminol-enhanced chemiluminescence); format: cell-based; conditions: Neutrophil
Text: Neutrophil activation can be measured by quantitation of ROS generated in vitro. Measurement of ROS allows specific quantitation of a pro-inflammatory species and is also a general measure of neutrophil activation. The most sensitive method for measuring the production of ROS by neutrophils is luminol-enhanced chemiluminescence. […] The assay system used to evaluate the ability of compounds to inhibit ROS generation in neutrophils is indicative of anti-inflammatory activity that may be efficacious in disease states including but not limited to rheumatoid arthritis and inflammatory bowel disease.
Freshly isolated primary human neutrophils (5×10^6 cells/mL) were incubated with the required concentrations of compound or vehicle for 30 minutes at 37° C. in HBSS buffer (pH 7.4) containing Ca^2+. 100 nM wortmannin was used as a positive control. Aliquots of each sample were transferred to a microtitre plate to which luminol (1 μM); obtained from Sigma; Catalogue No. A8511 is added. Activation of the neutrophils was immediately initiated by addition of (1 μM) fMLP; obtained from Sigma, Catalogue No. F3506. Light output from each well was recorded for 30 minutes in a microplate luminometer. Total light output (integral of the time-course) was determined for each well. Inhibitory activities of test drugs against neutrophil ROS generation is expressed as percentage activity relative to a no drug control (100% activation or generation of ROS) containing 0.25% DMSO. Concentration of test compound required to inhibit the generation of ROS to 50% of control values (IC50's) were determined from concentration-response curves by non-linear regression analysis.

[2] = tested on: Resiniferitoxin-induced mouse ear edema; test: Resiniferitoxin-induced mouse ear edema; format: in vivo; conditions: CD1 mice
Text: One of the primary characteristics of inflammation is an increase in vascular dilation and permeability leading to the extravasation of, and collection of fluids in, the interstitium, resulting in redness and swelling. Rheumatoid arthritis in particular is characterized by pronounced edema of affected joints resulting in significant pain and stiffness. The mouse ear inflammation model is a standard in vivo assay for inflammation that is based on an increase in ear weight which is attributable to edema induced by inflammatory mediators. RTX (resiniferitoxin; Sigma; Catalogue No. R 8756)) is a diterpene isolated from the plant Euphorbia poisonii and is an ultrapotent analog of capsaicin. RTX acts by selectively stimulating nociceptive and thermal-sensitive nerve ending in tissue, eliciting neurogenic edema. Compounds of the present invention, whether administered topically, intraperitoneally or orally, inhibited development of edema induced by topical application of RTX.
Mice (CD1, Charles River Laboratories) were separated into groups (n—5−8) and tagged. Control mice had RTX (0.1 μg/ear) applied topically to the inner and outer sides of the left ear and vehicle applied to the right ear as a control. For topical administration, experimental/treatment mice received RTX+test compound solution (50 μg/ear) on the left ear and acetone on the right ear. For intraperitoneal (i.p.) administration, 100 mg/kg test compound dissolved in 100 μL PEG 200:saline (1:1) was injected followed by a 30 minute waiting period then the standard 30 minute RTX edema induction. For oral (p.o.) administration, 10 mg/kg test compound in 100 μL PEG-200 was given to animals, then edema induced using 0.1 μg/ear RTX after a 1.5 hour waiting period. After edema induction, mice were sacrificed, and a standard disc of ear tissue was removed. Each disk of tissue was immediately weighed to the nearest 1/10th of a mg. Data were analyzed by taking the difference of each left ear from the right ear, calculating the mean+/−SEM. Statistical significance was tested by 2-sample t-test on the left/right ear weight differences of the control group vs. the experimental group.

[3] = target: T1, cAMP phosphodiesterase 3 from human platelets (Homo sapiens, UniProt Q14432); test: Inhibition of cAMP phosphodiesterase 3 from human platelets; format: biochemical; conditions: PDE3, platelet cell extract, X marks this range
T1 construct: from tissue; host or cells: human platelets, cytoplasmic extract
Text: Compound 12 was screened for activity against 5 of the major classes of mammalian cyclic nucleotide phosphodiesterase (termed PDE 1 through 5). PDE's 1 through 4 utilize cAMP as substrate while PDE 5 uses cGMP. The broad specificity PDE inhibitor 3-isobutyl-1-methylxanthine (IBMX; Sigma; Catalogue No. 17018)) was used as a positive control in all assays. PDE's for the various assays were partially purified from the following cells/tissues; PDE 1 (bovine heart), PDE 2 (human platelets), PDE 3 (human platelets), PDE 4 (human promonocytic U937 cells) and PDE 5 (human platelets).
Platelet cell extracts were prepared as described above for the U937 cells. The PDE3 assay was performed using platelet cell extract as described above for the PDE 4 assay. Platelets contain PDE 2, 3 and 5. However PDE2 and 5 preferentially utilize cGMP, so in an assay with cAMP as a substrate they are not detected.

[4] = tested on: High Affinity Rolipram Binding Site of PDE4 in Mouse Brain; test: Displacement of [3H]-rolipram from its high affinity binding site (HARBS); conditions: ratio of IC50 for PDE4 catalytic activity to concentration displacing 50% of rolipram from HARBS
Protocol: Suspension was centrifuged twice at 30,000×G at 4° C. and the supernatant discarded. The pellet was resuspended in buffer, and adjusted to a protein concentration of 0.5 mg/mL. Drugs to be tested were dissolved in DMSO and pipetted in triplicate into a 96 well microplate at concentrations ranging from 1 to 30,000 nM. […] The plate was incubated at 4° C. for 1 hour. Contents of the plate were aspirated through a Whatman GF/C filterplate, and rinsed with 4×200 μL ice-cold buffer. […] Triplicate determinations were performed at each concentration.

[5] = tested on: cAMP response element luciferase activity in human U937 monocytic cells; test: Potentiation of forskolin-induced CRE-luciferase activity in U937 cells; format: cell-based; conditions: U-937, U937 cells co-incubated with 10 μM forskolin, 4 hours, X marks this range
Protocol: Compounds of the present invention were thereby shown to provide potentiated luciferase expression in U937 cells treated with the adenylyl cyclase activator forskolin.
Human pro-monocytic U937 cells were maintained in RPMI medium containing 10% FCS and 2 mM […]. U937 cells were transiently transfected as described in Biotechniques Vol. 17(6):1058, 1994. Briefly, cells were grown in medium containing serum to a density of 5×10^6 cells/mL and then resuspended in media containing serum at a density of approximately 1×10^7 cells/mL. 400 μL of cells were transferred into the electroporation cuvette containing 10 μg of the reporter vector (PCRE-luc) in a volume of 40 μL H2O. Reporter vector DNA was prepared from DH5α E. coli using the DNA […] free kit (Qiagen) as per manufacturers instructions. U937 cells were clectroporated at room temperature using a BIORAD electroporator. Capacitance was set to 1050 μF and voltage was 280V. The time constant was noted after each electroporation. Cells were then diluted in 4 mL of media and serum and 200 μL of cells were plated per well. Cells were allowed to recover for 16-18 hours. Cells were then treated with a test compound or vehicle in the presence or absence of 10 μM forskolin for 4 hours at 37° C.
The luciferase assay was performed as per manufacturers instructions (Tropix). Briefly, cells were centrifuged for 4 minutes at 1200 rpm and media supernatant was removed. Cell pellets were lysed in 15 μL Lysis buffer (Tropix). Luciferase assay was performed using 10 μL of cell lysate with 10 μL of buffer A and 25 μL buffer B. Luciferase activity was obtained using a luminometer with a 5-second delay followed by a read time of 10 seconds.

[6] = read-out: IC50 RANGE (μM) >100, ROS production, X marks this range
[7] = read-out: IC50 range (μM) 10-100
[8] = Mus musculus, topical administration, 50 μg/ear, RTX 0.1 μg/ear
[9] = read-out: EC50 range (μM) 0.1-1
[10] = read-out: IC50 RANGE (μM) <1, ROS production, X marks this range
[11] = ROS production, X marks this range, read-out: IC50 RANGE (μM) 1-10

T1 sequence (Q14432 whole entry): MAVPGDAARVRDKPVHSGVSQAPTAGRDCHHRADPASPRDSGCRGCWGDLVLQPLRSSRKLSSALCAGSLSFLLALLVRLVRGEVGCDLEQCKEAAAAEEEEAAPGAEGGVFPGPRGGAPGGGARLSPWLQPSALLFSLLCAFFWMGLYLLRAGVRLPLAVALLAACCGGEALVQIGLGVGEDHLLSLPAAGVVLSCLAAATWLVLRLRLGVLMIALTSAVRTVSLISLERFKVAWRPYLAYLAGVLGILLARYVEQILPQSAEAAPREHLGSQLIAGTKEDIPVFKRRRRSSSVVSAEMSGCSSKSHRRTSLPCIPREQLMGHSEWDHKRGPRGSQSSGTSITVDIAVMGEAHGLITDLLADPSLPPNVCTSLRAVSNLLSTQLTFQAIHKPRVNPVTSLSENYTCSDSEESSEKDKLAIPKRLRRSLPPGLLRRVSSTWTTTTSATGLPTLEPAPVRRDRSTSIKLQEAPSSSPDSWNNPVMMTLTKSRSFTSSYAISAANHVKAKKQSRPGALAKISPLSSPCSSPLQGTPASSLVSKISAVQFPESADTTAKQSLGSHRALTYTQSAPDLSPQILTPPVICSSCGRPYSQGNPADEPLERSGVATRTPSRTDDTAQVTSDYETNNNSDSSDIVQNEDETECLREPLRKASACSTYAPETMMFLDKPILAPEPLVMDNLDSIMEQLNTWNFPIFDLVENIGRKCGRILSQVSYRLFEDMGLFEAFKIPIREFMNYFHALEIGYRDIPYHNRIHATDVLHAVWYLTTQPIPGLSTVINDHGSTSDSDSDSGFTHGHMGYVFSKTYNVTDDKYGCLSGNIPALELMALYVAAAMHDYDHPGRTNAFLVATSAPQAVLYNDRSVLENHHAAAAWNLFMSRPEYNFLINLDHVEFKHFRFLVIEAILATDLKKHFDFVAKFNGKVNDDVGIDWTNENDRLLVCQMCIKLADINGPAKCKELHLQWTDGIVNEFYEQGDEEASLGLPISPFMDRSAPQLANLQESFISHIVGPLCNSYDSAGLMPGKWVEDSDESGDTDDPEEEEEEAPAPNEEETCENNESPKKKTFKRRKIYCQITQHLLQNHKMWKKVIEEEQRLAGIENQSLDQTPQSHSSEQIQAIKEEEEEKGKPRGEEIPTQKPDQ

SMILES	IC50 [3] [µM]	PDE4:HARBS [4]	EC50 ([5]; read-out: EC50 range (μM) 1-25) [µM]	IC50 [1, 10] [µM]	further results
COc1cc(CC2C[C@@H](c3ccc(OC)c(OC4CCCC4)c3)COC2=O)ccc1OCc1ccccc1 (stereo partly shown) [Compound 42]	> 100	<1	1 to 25	–	IC50 ([1]; ROS production, X marks this range, read-out: IC50 RANGE (μM) 10-100): 10 to 100 µM; inhibition in vivo at 100 mg/kg ([2]; Mus musculus, ip, intraperitoneal administration, 100 mg/kg): 38%; inhibition in vivo at 10 mg/kg ([2]; Mus musculus, oral administration, 10 mg/kg): 41%
COc1cc(CC2C[C@@H](c3ccc(OC)c(OC4CCCC4)c3)CNC2=O)ccc1OCc1ccccc1 (stereo partly shown) [Compound 61]	–	<1	1 to 25	–	IC50 [1, 6]: > 100 µM; IC50 [3, 7]: 10 to 100 µM
BrCc1ccc(OCc2ccccc2)c(OCc2ccccc2)c1 [Compound 78, 3,4-dibenzyloxy benzyl bromide]	–	–	–	–	inhibition in vivo at 50 µg/ear [2, 8]: 93%
COc1ccc([C@H]2COC(=O)C(Cc3ccc(OCc4ccccc4)c(OCc4ccccc4)c3)C2)cc1OC (stereo partly shown) [Compound 79]	> 100	<1	–	–	IC50 [1, 6]: > 100 µM; EC50 [5, 9]: 0.1 to 1 µM
COc1ccc([C@@H](CO)CCC(=O)OC(C)(C)C)cc1OCc1ccccc1 [Compound 91]	–	–	–	–	% Inhibition of Edema ([2]; topical administration, 50 μg/ear, RTX 0.1 μg/ear): 27%
COc1ccc([C@@H]2CCC(=O)OC2)cc1OCc1ccccc1 [Compound 92]	–	–	–	–	inhibition in vivo at 50 µg/ear [2, 8]: 93%
COc1ccc([C@H]2COC(=O)C(Cc3ccc(O)c(N)c3)C2)cc1OC1CCCC1 (stereo partly shown) [Compound 94]	> 100	>1	–	< 1	EC50 [5, 9]: 0.1 to 1 µM
COc1ccc([C@@H]2CCC(=O)OC2)cc1OC(C)=O [Compound 103]	–	–	–	–	inhibition in vivo at 50 µg/ear [2, 8]: 94%
COc1ccc(CC2C[C@@H](c3ccc(OC)c(OC)c3)COC2=O)cc1 (stereo partly shown) [Compound 132]	–	<1	1 to 25	–	IC50 [1, 6]: > 100 µM; IC50 [3, 7]: 10 to 100 µM
COc1ccc([C@H]2COC(=O)C(Cc3ccc(O)cc3)C2)cc1OC (stereo partly shown) [Compound 133]	> 100	<1	1 to 25	< 1	–
COc1ccc([C@H]2COC(=O)C(Cc3ccc(OC)c(OCc4ccccc4)c3)C2)cc1OC (stereo partly shown) [Compound 135]	–	<1	1 to 25	< 1	IC50 [3, 7]: 10 to 100 µM
COc1ccc([C@@H]2CCC(=O)OC2)cc1OC(C)C [Compound 155]	> 100	<1	1 to 25	–	IC50 [1, 11]: 1 to 10 µM; EC50 [5, 9]: 0.1 to 1 µM
C=C(C)COc1cc([C@@H]2CCC(=O)OC2)ccc1OC [Compound 156]	> 100	1	–	< 1	EC50 [5, 9]: 0.1 to 1 µM
COc1ccc([C@@H]2CCC(=O)OC2)cc1OCC1CCC1 [Compound 157]	> 100	>1	–	< 1	EC50 [5, 9]: 0.1 to 1 µM
COc1ccc([C@H]2COC(=O)C(Cc3ccccc3)C2)cc1OC1CCCC1 (stereo partly shown) [Compound 168]	> 100	<1	1 to 25	< 1	–
COc1ccc([C@H]2COC(=O)C(Cc3ccccc3[N+](=O)[O-])C2)cc1OC1CCCC1 (stereo partly shown) [Compound 174]	> 100	<1	–	–	IC50 [1, 6]: > 100 µM; EC50 ([5]; read-out: EC50 range (μM) >25): > 25 µM
COc1ccc([C@H]2COC(=O)C(Cc3cccc([N+](=O)[O-])c3)C2)cc1OC1CCCC1 (stereo partly shown) [Compound 175]	> 100	<1	1 to 25	–	IC50 [1, 11]: 1 to 10 µM
COc1ccc(CC2(Cc3ccc(OC)c(O)c3)C[C@@H](c3ccc(OC)c(OC4CCCC4)c3)COC2=O)cc1O [Compound 181]	> 100	<1	–	–	IC50 [1, 11]: 1 to 10 µM; EC50 ([5]; read-out: EC50 range (μM) >25): > 25 µM
COc1ccc([C@H]2COC(=O)C(Cc3cccc(N)c3)C2)cc1OC1CCCC1 (stereo partly shown) [Compound 184]	> 100	>1	1 to 25	< 1	–
